Source: patent US5262157A (priority 1988, dated 1993)

Assays:
[1] = system: Pneumocystis carinii; test: Experimental rat model of Pneumocystis carinii pneumonia (PCP); type: in vivo; conditions: for Cysts/hpf in lung at necropsy: high power field 400×
Method: Rats were treated in groups of four. […] Doses in all trials were calculated as above.
Treatment regimens were tested in the standard animal model of PCP (6). To induce infection with P. carinii, rats were immunosuppresed with steriods for twelve weeks while restricted to a low-protein diet and tetracycline. Administration of a test regimen was initiated early during the induction period to determine its effectiveness in preventing PCP and was initiated late during the induction period to determine its effectiveness in treating PCP. Male Sprague-Dawley rats weighing 175-225 g were used. Rats were given twice weekly subcutaneous injections of 75 mg/kg of cortisone acetate, were maintained on an 8% protein diet, and were treated with tetracycline via their drinking water. Rats were sacrificed after twelve weeks of this regimen and the extent of infection was judged by counting cysts in toluidine blue 0-stained smears of lung homogenates. Lung homogenates were prepared by combining a weighed portion of tissue with nine ml of 0.1N HCl per g.

[2] = system: Pneumocystis carinii; conditions: patients with AIDS, IV or IM 4 mg/kg/day, 14-21 days; cited from earlier work
[3] = in vivo; conditions: rat, im, 4 mg/kg, level in the lungs
Method: Intramuscular (IM) doses were administered to the hindcalves of male Sprague-Dawley rats (240-260 g, Charles River Breeding Laboratories, Wilmington, Mass.).
Animals were sacrificed at 24 h after the last dose.

[4] = rat, aerosol doses greatly exceeding the therapeutic dose; cited from earlier work
[5] = Trial I, 0.4 mg/kg aerosol weekly, wk 5-11, mean ± standard deviation
[6] = Trial I, 4.0 mg/kg IM weekly, wk 5-11, mean ± standard deviation
[7] = Trial I, prophylactic aerosol 0.4 mg/kg weekly, weeks 5-11
[8] = Trial II, 0.2 mg/kg aerosol weekly, wk 7-11, mean ± standard deviation
[9] = Trial II, 0.4 mg/kg aerosol daily, 4×, wk 10, mean ± standard deviation
[10] = Trial III, 0.4 mg/kg aerosol biweekly, wks 7, 9, 11, mean ± standard deviation
[11] = Trial III, 0.4 mg/kg aerosol daily, 4×, wk 12, mean ± standard deviation
[12] = Trial III, 0.8 mg/kg aerosol monthly, wks 4, 8, mean ± standard deviation

N=C(N)c1ccc(OCCCCCOc2ccc(C(=N)N)cc2)cc1 [pentamidine, Pentamidine isethionate]
Cysts/hpf in lung at necropsy ([1]; Trial I, 0.4 mg/kg aerosol weekly, wk 5-11): < 1 Cysts/hpf | Lung weight at necropsy [1, 5]: 1.94 ± 0.21 g | Pent in lung at necropsy [1, 5]: 29.7 ± 7.1 µg/g | Cysts/hpf in lung at necropsy [1, 6]: 102 ± 88 Cysts/hpf | Lung weight at necropsy [1, 6]: 3.28 ± 1.15 g | Pent in lung at necropsy [1, 6]: 4.5 ± 1.7 µg/g | effectiveness in prevention of PCP, aerosol versus IM ([1]; Trial I, aerosol 0.4 mg/kg vs IM 4.0 mg/kg weekly): more effective in prevention of PCP than tenfold higher doses of IM pentamidine | cysts of P. carinii in stained smears of lung homogenates [1, 7]: rare or absent | lung weight and appearance [1, 7]: normal in weight and appearance | severity of infection versus control animals [1, 7]: more than a thousandfold less severe infection than was seen in control animals | Lung weight at necropsy [1, 8]: 1.43 ± 0.31 g | Pent in lung at necropsy [1, 8]: 15.2 ± 5.0 µg/g | Cysts/hpf in lung at necropsy [1, 9]: 20.8 ± 30.8 Cysts/hpf | Lung weight at necropsy [1, 9]: 1.20 ± 0.20 g | Pent in lung at necropsy [1, 9]: 15.8 ± 10.9 µg/g | effectiveness of prophylactic regimen ([1]; Trial II, aerosol weekly, weeks 7-11, 0.1 mg/kg): effective | Cysts/hpf in lung at necropsy [1, 10]: 48 ± 109 Cysts/hpf | Lung weight at necropsy [1, 10]: 1.41 ± 0.64 g | Pent in lung at necropsy [1, 10]: 13.4 ± 7.9 µg/g | Cysts/hpf in lung at necropsy [1, 11]: 188 ± 255 Cysts/hpf | Lung weight at necropsy [1, 11]: 2.08 ± 0.68 g | Pent in lung at necropsy [1, 11]: 8.3 ± 6.4 µg/g | Cysts/hpf in lung at necropsy [1, 12]: 4.6 ± 4.2 Cysts/hpf | Lung weight at necropsy [1, 12]: 1.26 ± 0.26 g | Pent in lung at necropsy [1, 12]: 16.1 ± 3.3 µg/g | effectiveness of prophylactic regimens ([1]; Trial III, aerosol 0.8 mg/kg monthly and 0.4 mg/kg biweekly): effective | prevention of PCP in the animal model ([1]; low and infrequent aerosol treatment): highly effective in prevention of PCP | retention of aerosol pentamidine ([1]; normal animals and early prophylactic doses vs animals treated with severe pneumonia): greater in normal animals and in animals that received early prophylactic doses than it was in animals who were treated when they had severe pneumonia | effectiveness of therapeutic regimen ([1]; rat, in vivo): partially effective | number of cysts versus lung pentamidine concentration ([1]; within the prophylaxis and treatment groups): the lowest number of cysts were found in animals with the highest concentrations of pentamidine in the lung | treatment of PCP infection [2]: highly effective in treatment of PCP infection | concentration at 24 h [3]: 800 ng/g | toxicity in histopathologic sections from the lungs [4]: No toxicity was seen
